One series has as its system rat hepatocytes. The series can be described thus: Metabolic stability in rat hepatocytes. The series is classed as in vitro ADME. As to conditions: predicted hepatic clearance, well stirred method. On the procedure: (§1) Test compounds were incubated in rat and human hepatocytes and stability was assessed from the substrate […] approach. Test compounds were dissolved in dimethyl sulfoxide (DMSO) to create a 10 mM Stock, and then further diluted to create a 1000× Working Stock of 1 mM with DMSO in 96-well plates for test compounds and the positive control (midazolam). Vials containing cryopreserved hepatocytes were removed from the liquid nitrogen tank and immediately immersed in a 37° C. water bath. The vials were shaken gently until the contents had thawed and were then immediately emptied into 48 mL of pre-warmed HT Medium in a 50 mL conical tube. Cells remaining in the vial were resuspended with 1.0 mL of pre-warmed HT Medium and added to the conical tube. The tube was capped and then gently inverted several times to resuspend the hepatocytes. The cell suspension was centrifuged at 50×g at room temperature for 5 minutes and the supernatant discarded. The cell pellet was loosened by gently swirling the centrifuge tube and was re-suspended in 4 mL of warm Dulbecco's Modified Eagle medium (DMEM). Cell density was determined by a cell counter by Nexcelom, and DMEM medium was added to obtain a target density of 1×10^6 cells/mL. The assay was carried out in 96-well microtiter plates. Test Compounds were incubated at 1 μM with 1×10^6 cells/mL hepatocytes in DMEM for 0, 30, 60, 120 and 240 minutes. The incubation was carried out with gentle shaking at 37° C. under a humid atmosphere of 95% air/5% CO2. The volume of the incubation mixture was 37 μL with a final 0.1% DMSO. At each of the time points, the incubation was stopped by adding 150 μL quenching solution (100% acetonitrile, 0.1% formic acid containing bucetin as an internal standard for positive ESI mode). Subsequently, the mixtures were vortexed for 20 min and centrifuged at 4,000 RPM at 10° C. The supernatant (80 μL) was transferred to a clean 96-well plate and analyzed by LC-MS/MS. Midazolam at 1 μM with a final 0.1% DMSO was included as a positive control to verify assay performance. The percent parent remaining, intrinsic and predicted hepatic clearance and t1/2 were calculated. All samples were analyzed by LC-MS/MS using an AB Sciex API 4000 instrument, coupled to a Shimadzu LC-20AD LC Pump system. Separation was achieved using a Waters Atlantis T3 dC18 reverse phase HPLC column (20 mm×2.1 mm) at a flow rate of 0.5 mL/min. The mobile phase consisted of 0.1% formic acid in water (solvent A) and 0.1% formic acid in 100% acetonitrile (solvent B). Elution conditions are detailed below.
(§2) The ion optics of each test compound were optimized for their declustering potential (DP), […] (CE), collision-cell exit potential (CXP) and used in a selected ion monitoring experiment in the positive ion mode. The peak area ratio of each test compound to internal standard was then evaluated for stability. The extent of metabolism was calculated based on the disappearance of the test compound, compared to its initial concentration. The initial rates of clearance of the test compound were calculated using the linear regression plot of semi-log % remaining of the compound versus time. The elimination rate constant (k) of the linear regression plot was then used to determine t1/2 and the intrinsic clearance (CLint) using the following formula, where Chepatocyte (million cells/mL) is the cell density of the incubation:
(§3) The predicted hepatic clearance (CLhep) was calculated using the well stirred method with the following formula with CLint (in vivo) normalized based on liver weight: […]
(§4) The relevant physiological parameters of liver weight, blood flow, and hepatocellularity for various species are listed below: […]

A short description of series [1]: Metabolic stability in rat hepatocytes. Type of series: in vitro ADME. As to conditions: cryopreserved hepatocytes, 1 μM, 1×10^6 cells/mL, 0-240 min; for half-life at 1 μM: read-out: Rat t1/2. On the procedure: as §1, §2, §3, §4
The next series deals with T1, human GLP-1R receptor (Homo sapiens, UniProt P43220).
T1 construct: expressed in transfected cells
The series can be described thus: GLP-1R low expression cell assay (cAMP TR-FRET, CHO-K1_hGLP-1Rlow_clone10 cells). The series is classed as cell-based. As to conditions: for EC50: cAMP TR-FRET, 30 min at 25° C.; for Emax: maximum activation relative to control GLP-1 peptide agonist. The procedure, abridged:
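Readout is cAMP TR-FRET after 30 min compound stimulation at 25 °C of a low-GLP-1R-expressing CHO-K1 clone (1,000 cells/well), with 10-point 3-fold serial dilutions. Percent activation versus a control GLP-1 peptide, from duplicates, was Hill-fitted to give EC50.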
Background: In TR-FRET formats the signal depends on donor and acceptor labels being close together.

The source of these data is US20240368120A1 (Terns Pharmaceuticals, Inc., priority 2023, published 2024).

Some results are limits rather than exact numbers.

T1 sequence (P43220 24-463): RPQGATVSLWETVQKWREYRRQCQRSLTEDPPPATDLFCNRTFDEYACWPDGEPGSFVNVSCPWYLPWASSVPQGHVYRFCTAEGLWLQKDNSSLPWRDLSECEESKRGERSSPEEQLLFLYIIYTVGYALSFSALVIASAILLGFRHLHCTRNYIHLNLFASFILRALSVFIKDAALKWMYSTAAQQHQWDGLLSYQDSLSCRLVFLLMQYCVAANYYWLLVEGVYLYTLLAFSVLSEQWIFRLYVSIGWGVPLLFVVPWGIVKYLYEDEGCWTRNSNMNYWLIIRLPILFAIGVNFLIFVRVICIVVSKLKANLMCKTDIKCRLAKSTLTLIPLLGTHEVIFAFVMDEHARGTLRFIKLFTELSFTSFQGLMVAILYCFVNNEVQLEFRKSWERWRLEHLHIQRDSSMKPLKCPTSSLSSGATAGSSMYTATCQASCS

For `COc1cc(C(=O)O)cc2c1nc(CN1CCC(c3cccc(OCc4ccc(C#N)cc4F)n3)CC1)n2Cc1cncs1` [Compound 1, 2-((4-(6-((4-Cyano-2-fluorobenzyl)oxy)pyridin-2-yl)piperidin-1-yl)methyl)-4-methoxy-1-(thiazol-5-ylmethyl)-1H-benzo[d]imidazole-6-carboxylic acid], the “Rat Clhep predicted” value in the series with rat hepatocytes was 1.837 ± 0.197 L/h/kg. For the same compound, in series [1], the intrinsic clearance (CLint scaled) at 1 μM worked out at 4.12 ± 0.21 L/h/kg and the half-life at 1 μM came out at 0.806 ± 0.041 h. In addition, on human GLP-1R receptor, the EC50 was less than 0.01 µM and the Emax was more than 85%.
The corresponding values for `COc1cc(C(=O)O)cc2c1nc(CN1CCC(c3cccc(OCc4ccc(C#N)cc4F)n3)CC1)n2C[C@@H]1CCO1` [Compound 8, (S)-2-((4-(6-((4-Cyano-2-fluorobenzyl)oxy)pyridin-2-yl)piperidin-1-yl)methyl)-4-methoxy-1-(oxetan-2-ylmethyl)-1H-benzo[d]imidazole-6-carboxylic acid] are 1.099 ± 0.103 L/h/kg, 1.64 ± 0.106 L/h/kg, 2.02 ± 0.131 h, less than 0.01 µM and more than 85%.

For orientation: CLint scaled means a measure of how fast metabolising enzymes remove a compound, apart from limits set by blood flow. One may read the EC50 as the concentration giving half of the maximal effect. The Emax is the greatest response seen or fitted, relative to the assay's reference.
